Test system: MV-4-11 cells
Assay: Gene expression microarray analysis (Affymetrix PrimeView) and GSEA
Assay type: cell-based, human
Parameters: RFU PODN (11730768_x_at) / Fold change /veh PODN (11730768_x_at) / RFU LINC00158 (11744669_a_at) / Fold change /veh LINC00158 (11744669_a_at) / RFU DUSP10 (11751237_a_at) / Fold change /veh DUSP10 (11751237_a_at) / RFU ID3 (11757404_x_at) / Fold change /veh ID3 (11757404_x_at) / RFU PLEKHG5 (11737974_s_at) / Fold change /veh PLEKHG5 (11737974_s_at) / RFU LRRC4B (11730491_at) / Fold change /veh LRRC4B (11730491_at) / RFU GIMAP4 (11747438_a_at) / Fold change /veh GIMAP4 (11747438_a_at) / RFU KRT8 (11758183_x_at) / Fold change /veh KRT8 (11758183_x_at) / RFU CNN1 (11734310_a_at) / Fold change /veh CNN1 (11734310_a_at) / RFU VPS37D (11726825_at) / Fold change /veh VPS37D (11726825_at) / RFU C10orf10 (11716522_x_at) / Fold change /veh C10orf10 (11716522_x_at) / RFU KIR2DL2 /// KIR2DL4 /// KIR2DL5A /// KIR2DL5B /// KIR2DS1 /// KIR2DS2 /// KIR2DS3 /// KIR2DS4 /// KIR3DL3 /// KIR3DL3 /// KIR3DS1 (11738374_at) / Fold change /veh KIR2DL2 /// KIR2DL4 /// KIR2DL5A /// KIR2DL5B /// KIR2DS1 /// KIR2DS2 /// KIR2DS3 /// KIR2DS4 /// KIR3DL3 /// KIR3DL3 /// KIR3DS1 (11738374_at) / RFU C1QL1 (11718748_at) / Fold change /veh C1QL1 (11718748_at) / RFU TMPRSS4 (11747572_a_at) / Fold change /veh TMPRSS4 (11747572_a_at) / RFU HAMP (11756126_x_at) / Fold change /veh HAMP (11756126_x_at) / RFU RNFT2 (11725882_a_at) / Fold change /veh RNFT2 (11725882_a_at) / RFU NR4A2 (11747474_a_at) / Fold change /veh NR4A2 (11747474_a_at) / RFU ABCC12 (11746883_a_at) / Fold change /veh ABCC12 (11746883_a_at) / RFU TMEM136 (11760407_x_at) / Fold change /veh TMEM136 (11760407_x_at) / RFU CLDN22 /// WWC2 (11732394_at) / Fold change /veh CLDN22 /// WWC2 (11732394_at) / RFU HLA-DPB1 (11760878_x_at) / Fold change /veh HLA-DPB1 (11760878_x_at) / RFU SPINT1 (11716480_a_at) / Fold change /veh SPINT1 (11716480_a_at) / RFU GAP43 (11754022_s_at) / Fold change /veh GAP43 (11754022_s_at) / RFU A4GNT (11735810_at) / Fold change /veh A4GNT (11735810_at) / RFU PRB3 (11715151_x_at) / Fold change /veh PRB3 (11715151_x_at) / RFU TUBB4B (11761932_at) / Fold change /veh TUBB4B (11761932_at) / RFU CAPN14 (11732068_a_at) / Fold change /veh CAPN14 (11732068_a_at) / RFU TMCC2 (11721928_a_at) / Fold change /veh TMCC2 (11721928_a_at) / RFU IRGQ (11745062_a_at) / Fold change /veh IRGQ (11745062_a_at) / RFU FAM174B (11720279_a_at) / Fold change /veh FAM174B (11720279_a_at) / RFU TMPRSS4 (11748680_a_at) / Fold change /veh TMPRSS4 (11748680_a_at) / RFU FAM212B (11763350_a_at) / Fold change /veh FAM212B (11763350_a_at) / RFU PLEKHG5 (11743358_a_at) / Fold change /veh PLEKHG5 (11743358_a_at) / RFU ZSCAN30 (11745921_a_at) / Fold change /veh ZSCAN30 (11745921_a_at) / RFU CMKLR1 (11741424_a_at) / Fold change /veh CMKLR1 (11741424_a_at) / RFU LOC101060620 /// MAPK8IP1 (11723275_at) / Fold change /veh LOC101060620 /// MAPK8IP1 (11723275_at) / RFU SPTSSB (11747773_x_at) / Fold change /veh SPTSSB (11747773_x_at) / RFU PRSS12 (11739890_at) / Fold change /veh PRSS12 (11739890_at) / RFU BIN1 (11741810_x_at) / Fold change /veh BIN1 (11741810_x_at) / RFU WNT11 (11732464_a_at) / Fold change /veh WNT11 (11732464_a_at) / RFU C10orf10 (11716521_a_at) / Fold change /veh C10orf10 (11716521_a_at) / RFU C5orf56 (11738089_at) / Fold change /veh C5orf56 (11738089_at) / RFU CYB561 (11721691_x_at) / Fold change /veh CYB561 (11721691_x_at) / RFU ANKRD19P (11752326_a_at) / Fold change /veh ANKRD19P (11752326_a_at) / RFU OR2T12 /// OR2T33 /// OR2T8 (11738714_s_at) / Fold change /veh OR2T12 /// OR2T33 /// OR2T8 (11738714_s_at) / RFU VCAN (11748164_a_at) / Fold change /veh VCAN (11748164_a_at) / RFU JSRP1 (11732532_at) / Fold change /veh JSRP1 (11732532_at) / RFU KRTAP10-11 (11738290_x_at) / Fold change /veh KRTAP10-11 (11738290_x_at) / RFU MYO3A (11730013_a_at) / Fold change /veh MYO3A (11730013_a_at) / RFU EBF3 (11725865_a_at) / Fold change /veh EBF3 (11725865_a_at) / RFU CAMK2N1 (11719241_x_at) / Fold change /veh CAMK2N1 (11719241_x_at) / RFU C5orf56 (11738088_a_at) / Fold change /veh C5orf56 (11738088_a_at) / RFU OLFML3 (11715873_a_at) / Fold change /veh OLFML3 (11715873_a_at) / RFU LOC100653217 /// NTM (11731650_a_at) / Fold change /veh LOC100653217 /// NTM (11731650_a_at) / RFU MAPK11 (11762145_a_at) / Fold change /veh MAPK11 (11762145_a_at) / RFU FIZ1 (11724087_x_at) / Fold change /veh FIZ1 (11724087_x_at) / RFU OASL (11726364_x_at) / Fold change /veh OASL (11726364_x_at) / RFU SOX15 (11748057_x_at) / Fold change /veh SOX15 (11748057_x_at) / RFU CD79A (11719716_a_at) / Fold change /veh CD79A (11719716_a_at) / RFU HIST1H1D (11736915_at) / Fold change /veh HIST1H1D (11736915_at) / RFU CASKIN2 (11723855_a_at) / Fold change /veh CASKIN2 (11723855_a_at) / RFU LOC730098 (11760151_x_at) / Fold change /veh LOC730098 (11760151_x_at) / RFU OR4N2 (11742367_at) / Fold change /veh OR4N2 (11742367_at) / RFU PRRT2 (11749266_a_at) / Fold change /veh PRRT2 (11749266_a_at) / RFU SNX32 (11753110_a_at) / Fold change /veh SNX32 (11753110_a_at) / RFU CDHR5 (11726645_a_at) / Fold change /veh CDHR5 (11726645_a_at) / RFU RCAN1 (11760418_a_at) / Fold change /veh RCAN1 (11760418_a_at) / RFU FAM167A (11723789_a_at) / Fold change /veh FAM167A (11723789_a_at) / RFU FAM26E (11764081_at) / Fold change /veh FAM26E (11764081_at) / RFU ISYNA1 (11749810_s_at) / Fold change /veh ISYNA1 (11749810_s_at) / RFU ACY1 (11761880_at) / Fold change /veh ACY1 (11761880_at) / RFU 11764098_at / Fold change /veh 11764098_at / RFU SAMD14 (11745864_x_at) / Fold change /veh SAMD14 (11745864_x_at) / RFU NPB (11741838_a_at) / Fold change /veh NPB (11741838_a_at) / RFU TMPRSS6 (11731388_a_at) / Fold change /veh TMPRSS6 (11731388_a_at) / RFU KRTAP10-2 (11738614_at) / Fold change /veh KRTAP10-2 (11738614_at) / RFU ARHGAP8 /// PRR5-ARHGAP8 (11727945_x_at) / Fold change /veh ARHGAP8 /// PRR5-ARHGAP8 (11727945_x_at) / RFU KRTAP5-7 /// NADSYN1 (11734609_at) / Fold change /veh KRTAP5-7 /// NADSYN1 (11734609_at) / RFU RASL12 (11751679_a_at) / Fold change /veh RASL12 (11751679_a_at) / RFU CDKN2B (11736163_a_at) / Fold change /veh CDKN2B (11736163_a_at) / RFU PRF1 (11729649_at) / Fold change /veh PRF1 (11729649_at) / RFU, ZNF638 /// ZNF638-IT1 / Fold change vs veh, ZNF638 /// ZNF638-IT1 / RFU, PANK3 / Fold change vs veh, PANK3 / RFU, SH3YL1 / Fold change vs veh, SH3YL1 / RFU, ZEB2 / Fold change vs veh, ZEB2 / RFU, NRIP1 / Fold change vs veh, NRIP1 / RFU, PTTG1IP / Fold change vs veh, PTTG1IP / RFU, CAPN2 / Fold change vs veh, CAPN2 / RFU, MED14 / Fold change vs veh, MED14 / RFU, SNORA58 / Fold change vs veh, SNORA58 / RFU, C1orf63 / Fold change vs veh, C1orf63 / RFU, LRRFIP1 / Fold change vs veh, LRRFIP1 / RFU, NDUFAF7 / Fold change vs veh, NDUFAF7 / RFU, SLC12A2 / Fold change vs veh, SLC12A2 / RFU, IBTK / Fold change vs veh, IBTK / RFU, ESF1 / Fold change vs veh, ESF1 / Fold change vs veh, TMEM50B / RFU, TAOK1 / Fold change vs veh, TAOK1 / RFU, ACBD3 / Fold change vs veh, ACBD3 / RFU, TMA16 / Fold change vs veh, TMA16 / RFU, RWDD3 / Fold change vs veh, RWDD3 / RFU, BCAT1 / Fold change vs veh, BCAT1 / RFU, EDEM3 / Fold change vs veh, EDEM3 / RFU, TMEM33 / Fold change vs veh, TMEM33 / RFU, WDR75 / Fold change vs veh, WDR75 / RFU, AHCTF1 / Fold change vs veh, AHCTF1 / RFU, TFRC / Fold change vs veh, TFRC / RFU, ZDHHC17 / Fold change vs veh, ZDHHC17 / RFU, NOM1 / Fold change vs veh, NOM1 / RFU, ARL8B / Fold change vs veh, ARL8B / RFU, ZBTB11 / Fold change vs veh, ZBTB11 / RFU, TAMM41 / Fold change vs veh, TAMM41 / RFU, KIAA1704 /// LOC100996395 / Fold change vs veh, KIAA1704 /// LOC100996395 / RFU, ING1 / Fold change vs veh, ING1 / RFU, TRMT61B / Fold change vs veh, TRMT61B / RFU, FUBP3 / Fold change vs veh, FUBP3 / RFU, TP53 / Fold change vs veh, TP53 / RFU, TNKS2 / Fold change vs veh, TNKS2 / RFU, ZFP14 / Fold change vs veh, ZFP14 / RFU, ACTR2 / Fold change vs veh, ACTR2 / RFU, PPP3R1 / Fold change vs veh, PPP3R1 / RFU, PIK3R1 / Fold change vs veh, PIK3R1 / RFU, HNRNPA1 / Fold change vs veh, HNRNPA1 / RFU, RNF170 / Fold change vs veh, RNF170 / RFU, ZNF28 / Fold change vs veh, ZNF28 / RFU, RNGTT / Fold change vs veh, RNGTT / RFU, OGT / Fold change vs veh, OGT / RFU, BRD1 / Fold change vs veh, BRD1 / RFU, MARS / Fold change vs veh, MARS / RFU, ZNF655 / Fold change vs veh, ZNF655 / RFU, FAHD1 / Fold change vs veh, FAHD1 / RFU, BDP1 / Fold change vs veh, BDP1 / RFU, LRRCC1 / Fold change vs veh, LRRCC1 / RFU, ARID1A / Fold change vs veh, ARID1A / RFU, ZNF146 / Fold change vs veh, ZNF146 / RFU, ZNF330 / Fold change vs veh, ZNF330 / RFU, GPN3 / Fold change vs veh, GPN3 / RFU, C9orf123 / Fold change vs veh, C9orf123 / RFU, N4BP2L2 / Fold change vs veh, N4BP2L2 / RFU, ARFIP1 / Fold change vs veh, ARFIP1 / RFU, FAM179B / Fold change vs veh, FAM179B / RFU, BCL10 / Fold change vs veh, BCL10 / RFU, UHRF1BP1L / Fold change vs veh, UHRF1BP1L / RFU, BET1 / Fold change vs veh, BET1 / RFU, CNOT2 / Fold change vs veh, CNOT2 / RFU, ZNF268 / Fold change vs veh, ZNF268 / Fold change vs veh, ZNF507 / RFU, DGCR2 / Fold change vs veh, DGCR2 / RFU, WDSUB1 / Fold change vs veh, WDSUB1 / Fold change vs veh, HSP90B1 /// MIR3652 / RFU, ADSS / Fold change vs veh, ADSS / RFU, GK / Fold change vs veh, GK / RFU, ZNF148 / Fold change vs veh, ZNF148 / RFU, TAF9 / Fold change vs veh, TAF9 / RFU, SLC1A5 / Fold change vs veh, SLC1A5 / RFU, SLMO2 / Fold change vs veh, SLMO2 / RFU, ABCC4 / Fold change vs veh, ABCC4 / RFU, LOC101060439 /// RAP1B / Fold change vs veh, LOC101060439 /// RAP1B / RFU, RFX7 / Fold change vs veh, RFX7 / RFU, GTPBP10 / Fold change vs veh, GTPBP10 / RFU, CNEP1R1 / Fold change vs veh, CNEP1R1 / RFU, BIVM-ERCC5 /// ERCC5 / Fold change vs veh, BIVM-ERCC5 /// ERCC5 / RFU, ILF3 / Fold change vs veh, ILF3 / RFU 11762660_at / Fold change /veh 11762660_at / RFU VCAN (11757783_s_at) / Fold change /veh VCAN (11757783_s_at) / RFU DDX43 (11728927_at) / Fold change /veh DDX43 (11728927_at) / RFU KRT8 (11758188_x_at) / Fold change /veh KRT8 (11758188_x_at) / RFU NKD1 (11759106_at) / Fold change /veh NKD1 (11759106_at) / RFU SRD5A1 (11742802_a_at) / Fold change /veh SRD5A1 (11742802_a_at) / RFU TPSAB1 /// TPSB2 (11721975_s_at) / Fold change /veh TPSAB1 /// TPSB2 (11721975_s_at) / RFU GSTM3 (11746129_a_at) / Fold change /veh GSTM3 (11746129_a_at) / RFU IL23R (11737362_x_at) / Fold change /veh IL23R (11737362_x_at) / RFU TMEM51 (11727254_a_at) / Fold change /veh TMEM51 (11727254_a_at) / RFU PIWIL2 (11732686_x_at) / Fold change /veh PIWIL2 (11732686_x_at) / RFU ORM1 (11744905_x_at) / Fold change /veh ORM1 (11744905_x_at) / RFU CCDC152 (11743942_at) / Fold change /veh CCDC152 (11743942_at) / RFU ECM1 (11717891_a_at) / Fold change /veh ECM1 (11717891_a_at) / RFU IL23R (11748794_a_at) / Fold change /veh IL23R (11748794_a_at) / RFU TNFAIP8L3 (11732012_x_at) / Fold change /veh TNFAIP8L3 (11732012_x_at) / RFU MBOAT4 (11741988_at) / Fold change /veh MBOAT4 (11741988_at) / RFU 11764193_at / Fold change /veh 11764193_at / RFU TMEM53 (11763286_at) / Fold change /veh TMEM53 (11763286_at) / RFU MAGEB2 (11727129_at) / Fold change /veh MAGEB2 (11727129_at) / RFU TMEM200A (11744735_a_at) / Fold change /veh TMEM200A (11744735_a_at) / RFU CCDC152 (11751479_a_at) / Fold change /veh CCDC152 (11751479_a_at) / RFU FAM211A (11726209_a_at) / Fold change /veh FAM211A (11726209_a_at) / RFU RGS16 (11746705_a_at) / Fold change /veh RGS16 (11746705_a_at) / RFU VCAN (11755009_s_at) / Fold change /veh VCAN (11755009_s_at) / RFU RHOB (11743442_s_at) / Fold change /veh RHOB (11743442_s_at) / RFU RGS16 (11720943_a_at) / Fold change /veh RGS16 (11720943_a_at) / RFU RGS16 (11720944_at) / Fold change /veh RGS16 (11720944_at) / RFU, VPS4B / Fold change vs veh, VPS4B / RFU, CREB1 / Fold change vs veh, CREB1 / RFU, DNAJC13 / Fold change vs veh, DNAJC13 / RFU, GNAQ / Fold change vs veh, GNAQ / RFU, CDK5R1 / Fold change vs veh, CDK5R1 / RFU, ZRANB3 / Fold change vs veh, ZRANB3 / RFU, CUL4A / Fold change vs veh, CUL4A / RFU, CCNY / Fold change vs veh, CCNY / RFU, UFL1 / Fold change vs veh, UFL1 / RFU, COG3 / Fold change vs veh, COG3 / RFU, DIAPH2 / Fold change vs veh, DIAPH2 / RFU, SKA2 / Fold change vs veh, SKA2 / RFU, AFF3 / Fold change vs veh, AFF3 / RFU, LMF1 / Fold change vs veh, LMF1 / RFU, IPO11 / Fold change vs veh, IPO11 / RFU, DFFB / Fold change vs veh, DFFB / RFU, FOXP1 / Fold change vs veh, FOXP1 / RFU, CARD8 / Fold change vs veh, CARD8 / RFU, STRN3 / Fold change vs veh, STRN3 / RFU, ADK / Fold change vs veh, ADK / RFU, RASSF2 / Fold change vs veh, RASSF2 / RFU, WIPF1 / Fold change vs veh, WIPF1 / RFU, LARP1B / Fold change vs veh, LARP1B / RFU, RASA1 / Fold change vs veh, RASA1 / RFU, RB1 / Fold change vs veh, RB1 / RFU, PPFIA1 / Fold change vs veh, PPFIA1 / RFU, MAT2A / Fold change vs veh, MAT2A / RFU, CCT5 / Fold change vs veh, CCT5 / RFU, WDR92 / Fold change vs veh, WDR92 / RFU, CUX1 / Fold change vs veh, CUX1 / RFU, TTC7A / Fold change vs veh, TTC7A / RFU, TMEM135 / Fold change vs veh, TMEM135 / RFU, DEPTOR / Fold change vs veh, DEPTOR / RFU, CPM / Fold change vs veh, CPM / RFU, DNAJB6 / Fold change vs veh, DNAJB6 / RFU, CACNA2D3 / Fold change vs veh, CACNA2D3 / RFU, DTX4 / Fold change vs veh, DTX4 / RFU, TFCP2 / Fold change vs veh, TFCP2 / RFU, GMCL1 /// GMCL1P1 / Fold change vs veh, GMCL1 /// GMCL1P1 / RFU, AEBP2 / Fold change vs veh, AEBP2 / RFU, SNHG1 /// SNORD22 /// SNORD25 /// SNORD26 /// SNORD27 /// SNORD28 /// SNORD29 /// SNORD31 / Fold change vs veh, SNHG1 /// SNORD22 /// SNORD25 /// SNORD26 /// SNORD27 /// SNORD28 /// SNORD29 /// SNORD31 / Fold change (Aza/veh), C12orf56 (ProbeSet 11735607_a_at) / Fold change (ACY-1035/veh), C12orf56 (ProbeSet 11735607_a_at) / Fold change (Aza/veh), FGFR1OP (ProbeSet 11751329_s_at) / Fold change (ACY-1035/veh), FGFR1OP (ProbeSet 11751329_s_at) / Fold change (Aza/veh), VPS36 (ProbeSet 11739960_a_at) / Fold change (ACY-1035/veh), VPS36 (ProbeSet 11739960_a_at) / RFU SYPL1 (11715823_x_at) / Fold change /veh SYPL1 (11715823_x_at) / RFU IGFBP7 (11715501_s_at) / Fold change /veh IGFBP7 (11715501_s_at) / RFU REEP3 (11722064_at) / Fold change /veh REEP3 (11722064_at) / RFU IGLL1 (11728026_x_at) / Fold change /veh IGLL1 (11728026_x_at): dose or concentration left out as unconfirmed
Conditions: MV-4-11 cells, 48 hours

Nc1ccc(-c2cccs2)cc1NC(=O)c1ccc2c(c1)cc(C1CC1)n2CCN1CCOCC1 [ACY-1035]
Fold change /veh OASL (11726364_x_at): 1.03

— PMC5218480 (PLoS ONE, 2017)
